According to publication PMC6429183, “Identification of Compounds That Inhibit Estrogen-Related Receptor Alpha Signaling Using High-Throughput Screening Assays” (Molecules, 2019):
Where “and” joins values, the source holds several entries; their conditions need not be identical. Equal entries are not always repeated. Where two headings read alike, the source gives them in different places.

Key:
[1] = biological target: T1, ERRα with PGC-1α (PGC/ERR pathway) (Homo sapiens, UniProt P11474); test: PGC/ERR reporter (luciferase) qHTS assay, PGC/ERR-HEK293; settings: for EC50: mean ± SD, triplicate; for activity in the ERR/PGC assay: in words; for PGC/ERR-HEK293 Follow-Up Efficacy: follow-up screen; for PGC/ERR-HEK293 Follow-Up Efficacy / PGC/ERR-HEK293 Primary Efficacy: negative = antagonism, positive = agonism; for PGC/ERR-HEK293 Primary Efficacy: primary qHTS
T1 sequence (P11474 1-423): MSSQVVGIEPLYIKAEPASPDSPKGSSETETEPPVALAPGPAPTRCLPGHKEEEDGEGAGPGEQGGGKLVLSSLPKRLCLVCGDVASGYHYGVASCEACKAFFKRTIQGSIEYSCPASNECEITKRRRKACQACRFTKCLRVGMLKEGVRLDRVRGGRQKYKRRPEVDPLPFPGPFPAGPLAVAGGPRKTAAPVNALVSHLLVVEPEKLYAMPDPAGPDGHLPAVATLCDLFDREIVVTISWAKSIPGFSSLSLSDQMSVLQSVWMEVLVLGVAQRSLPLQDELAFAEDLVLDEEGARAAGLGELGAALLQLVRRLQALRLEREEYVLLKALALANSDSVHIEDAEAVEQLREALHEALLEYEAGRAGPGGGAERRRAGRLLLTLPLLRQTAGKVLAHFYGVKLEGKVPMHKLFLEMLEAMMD

[2] = biological target: T2, estrogen-related receptor alpha (ERRα) (Homo sapiens, UniProt P11474)
T2 sequence (P11474 1-423): T1 sequence (P11474 1-423)

[3] = system: PGC/ERR reporter HEK293 cells; test: CellTiter-Fluor cell viability assay multiplexed with PGC/ERR reporter assay; assay type: cell-based; settings: for PGC/ERR-HEK293 Follow-Up Viability EC50: follow-up screen; for PGC/ERR-HEK293 Primary Viability EC50: primary qHTS; for EC50: Homo sapiens
Description: (§1) ERR or PGC/ERR reporter HEK293 cells suspended in culture medium without puromycin were dispensed at 2500 cells/5 μL/well in tissue culture–treated 1536-well white assay plates (Greiner Bio-One North America, Monroe, NC, USA) using a Thermo Scientific Multidrop Combi (ThermoFisher Scientific, Inc.). […] After the cells were incubated at 37 °C with 5% CO2 for 6 h, 23 nL of compounds or control, XTC790, was transferred into the assay plates using a Wako Pintool station (Wako Automation, San Diego, CA, USA). The assay plates were incubated at 37 °C for 18 h, followed by the addition of 5 μL ONE-Glo luciferase reagent (Promega, Madison, WI, USA) using a Flying Reagent Dispenser (Aurora Discovery, Carlsbad, CA, USA). After 30 min of incubation at room temperature, the luminescence intensity of the assay plates was quantified using a ViewLux plate reader (PerkinElmer, Shelton, CT, USA). The assays were performed three times for each compound concentration. These ERR and PGC/ERR reporter assays were multiplexed with the CellTiter-Fluor Cell Viability Assay (Promega), a fluorescence-based cell viability assay, to assess compound cytotoxicity.
The qHTS data were analyzed as described previously. Each titration point was normalized relative to the positive control compound (XCT790 = −100%) and DMSO-only wells (0%) according to the following equation: % Activity = [(Vcompound − VDMSO)/(VDMSO − Vpos)] × 100, where Vcompound denotes the compound well values, Vpos denotes the median value of the positive control wells, and VDMSO denotes the median values of the DMSO-only wells. The DMSO-only compound plates at the beginning and end of the compound plate stack were used to correct the data set by applying an in-house pattern correction algorithm. The half maximum inhibition values (IC50) for each compound and maximum response (efficacy) values were obtained by fitting the concentration-response curves of each compound to a four-parameter Hill equation [91]. Compounds were designated as Class 1–4 according to the type of concentration–response curve observed. For each reading, the activity outcome of a test compound was first categorized by the average curve rank from the triplicate runs and the reproducibility calls. The final activity outcome of each compound was based on the ERR antagonist readout activity and cell viability counter screen.

[4] = system: ERR reporter HEK293 cells; test: CellTiter-Fluor cell viability assay multiplexed with ERR reporter assay; assay type: cell-based; settings: for ERR-HEK293 Follow-Up Viability EC50: follow-up screen; for EC50: Homo sapiens
Description: as §1
The qHTS data were analyzed as described previously. […] The DMSO-only compound plates at the beginning and end of the compound plate stack were used to correct the data set by applying an in-house pattern correction algorithm. The half maximum inhibition values (IC50) for each compound and maximum response (efficacy) values were obtained by fitting the concentration-response curves of each compound to a four-parameter Hill equation [91]. […] For each reading, the activity outcome of a test compound was first categorized by the average curve rank from the triplicate runs and the reproducibility calls. The final activity outcome of each compound was based on the ERR antagonist readout activity and cell viability counter screen.

[5] = biological target: T1, ERRα with PGC-1α (PGC/ERR pathway)
[6] = biological target: T2, estrogen-related receptor alpha (ERRα); test: ERR reporter (luciferase) antagonist qHTS assay, ERR-HEK293; settings: for EC50: mean ± SD, triplicate; for activity in the ERR assay: in words; for ERR-HEK293 Follow-Up Efficacy: follow-up screen; for ERR-HEK293 Follow-Up Efficacy / ERR-HEK293 Primary Efficacy: relative to XCT790 = −100%; for ERR-HEK293 Primary Efficacy: primary qHTS, DMSO = 0%
COX8α = test: qRT-PCR mRNA expression of ERR downstream gene COX8α; assay type: cell-based; settings: 2 µM; ERR reporter cells; vs GAPDH, DMSO = 0%
Description: (§2) Total RNA was isolated from treated ERR reporter cells using an RNeasy Mini Kit (Qiagen, Germantown, MD, USA), homogenized using a QIAshredder (Qiagen), and reverse transcribed with a High-Capacity RNA-to-cDNA™ Kit (ThermoFisher Scientific, Inc.) following the manufacturers’ instructions. Expression of ERRα, COX8α, IDH3α, PPARα, COX4I1, and cytochrome c genes was normalized against GAPDH. All primers were purchased from ThermoFisher Scientific, Inc. Real-time PCR assays were performed in 384-well plates on a QuantStudio 5 (Applied Biosystems, Foster City, CA, USA) with TaqMan™ Gene Expression Master Mix (ThermoFisher Scientific, Inc.). Induction values were calculated using the equation: Fold = 2^ΔΔCt, where ΔCt represents the differences in cycle threshold numbers between each of the target genes and GAPDH, and ΔΔCt represents the relative change in these differences between control and treatment groups. Experimental data are presented as a mean of triplicate determinations ± SD. Statistical comparisons were made by t-test, while the statistical significance was set at p values of <0.05 (light blue), <0.01 (medium blue), and <0.001 (dark blue).

IDH3α = test: qRT-PCR mRNA expression of ERR downstream gene IDH3α; assay type: cell-based; settings: ERR reporter cells, vs GAPDH, DMSO = 0%
Description: as §2

cytochrome c = test: qRT-PCR mRNA expression of ERR downstream gene cytochrome c; assay type: cell-based; settings: ERR reporter cells, vs GAPDH, DMSO = 0%
Description: as §2

COX4I1 = test: qRT-PCR mRNA expression of ERR downstream gene COX4I1; assay type: cell-based; settings: ERR reporter cells, vs GAPDH, DMSO = 0%
Description: as §2, with “Experimental data are presented as a mean of triplicate determinations ± SD. Statistical comparisons were made by t-test, while the statistical significance was set at p values of <0.05 (light blue), <0.01 (medium blue), and <0.001 (dark blue).” left out

[7] = system: Nrf2/antioxidant response element (ARE); test: Nrf2/ARE-HepG2 β-lactamase reporter agonist assay; assay type: cell-based; settings: agonist mode, heatmap outcome
Description: After the assay plates were incubated at 37 °C for 5–6 h, 23 nL of compounds dissolved in DMSO or positive controls were transferred to the assay plates via a Wako Pintool station (Wako). Except for ARE and p53, all other assays received 1 µL/well agonist (10 nM R1881 for AR; 0.5 and 5 nM β-estradiol for ERα and ERβ respectively; 300 µM CDCA for FXR; 50 nM Rosiglitazone for PPARγ; and 5 nM R5020 for PR) or assay medium using a Flying Reagent Dispenser (FRD). The assay plates were incubated for 16 h (AR, Nrf2/ARE, ERβ, FXR, p53, and PR), 17 h (PPARγ), or 18 h (ERα) at 37 °C, and 1 µL/well LiveBLAzer™ FRET-B/G CCF4-AM substrate (ThermoFisher Scientific, Inc.) detection mix was added using an FRD and the plates were incubated at room temperature for 2 h. […] Data were expressed as the ratio of 460/530 nm emission values.

[8] = PGC/ERR-HEK293 Follow-Up EC50, follow-up screen
[9] = PGC/ERR-HEK293 Primary EC50, primary qHTS, 18 h
[10] = primary qHTS, viability counter screen
[11] = ERR-HEK293 Follow-Up EC50, follow-up (confirmation) screen
[12] = ERR-HEK293 Primary EC50, primary qHTS, 18 h, 15 concentrations
[13] = HEK293, primary qHTS, read-out: PGC/ERR-HEK293 Primary Viability EC50 (converted)

Row | SMILES | EC50 [1, 8] [nM] | EC50 [1, 9] [nM] | ERR-HEK293 Follow-Up Efficacy [2] [%] | ERR-HEK293 Primary Efficacy [2] [%] | PGC/ERR-HEK293 Follow-Up Viability EC50 [3] | PGC/ERR-HEK293 Primary Viability EC50 [3] | ERR-HEK293 Follow-Up Viability EC50 [4] | ERR-HEK293 Primary Viability EC50 [4, 10] | PGC/ERR-HEK293 Follow-Up Efficacy [5] [%] | PGC/ERR-HEK293 Primary Efficacy [5] [%] | EC50 [6, 11] [nM] | EC50 [6, 12] [nM] | EC50 [3, 13] [nM] | activity in the ERR/PGC assay [1] | activity in the ERR assay [6] | PGC/ERR-HEK293 Follow-Up Efficacy [1] [%] | PGC/ERR-HEK293 Primary Efficacy [1] [%] | ERR-HEK293 Follow-Up Efficacy [6] [%] | ERR-HEK293 Primary Efficacy [6] [%] | other results
1 | CO/N=C(/C(=O)OC)c1ccccc1COc1ccccc1C [Kresoxim-methyl] | 17700 ± 6040 | 7660 ± 6870 | −102 ± 1.40 | −86.6 ± 21.1 | Inactive | Inactive | Inactive | Inactive | −61.1 ± 10.0 | −56.7 ± 8.51 | 8310 ± 3290 | 5650 ± 6960 |  |  |  |  |  |  |  | Percent inhibition of mRNA gene expression, COX8α (COX8α): 9.70 ± 12.8%; Percent inhibition of mRNA gene expression, IDH3α (IDH3α; 2 µM): 8.26 ± 19.3%; Percent inhibition of mRNA gene expression, Cytochrome C (cytochrome c; 2 µM): 9.31 ± 0.48%
2 | COC(=O)N(OC)c1ccccc1COc1ccn(-c2ccc(Cl)cc2)n1 [Pyraclostrobin] | 539 ± 760 | 838 ± 771 | −80.0 ± 5.67 | −90.7 ± 11.9 | Inactive |  | Inactive |  | −42.1 ± 9.82 | −58.2 ± 4.17 | 762 | 239 ± 130 | 74500 |  |  |  |  |  |  | EC50 ([4]; HEK293, primary qHTS, viability counter screen, read-out: ERR-HEK293 Primary Viability EC50 (converted)): 40900 nM; Percent inhibition of mRNA gene expression, IDH3α (IDH3α; 1 µM): 5.06 ± 5.03%; Percent inhibition of mRNA gene expression, Cytochrome C (cytochrome c; 1 µM): 11.0 ± 8.54%
3 | CC(C)(C)c1ccc(CSc2cnn(C(C)(C)C)c(=O)c2Cl)cc1 [Pyridaben] | 43.4 ± 20 | 7.81 ± 3.01 | −94.1 ± 13.4 | −77.3 ± 4.10 | Inactive | Inactive | Inactive | Inactive | −63.1 ± 29.7 | −57.6 ± 8.49 | 24.5 ± 9.42 | 5.92 ± 0.815 |  | antagonism | potent antagonists |  |  |  |  | Percent inhibition of mRNA gene expression, IDH3α (IDH3α; 15 nM): 14.6%
4 | C=C(C)[C@H]1Cc2c(ccc3c2O[C@@H]2COc4cc(OC)c(OC)cc4[C@@H]2C3=O)O1 [Rotenone] | 61.8 ± 61 | 7.42 ± 2.07 |  |  |  |  |  | Inactive |  |  | 16 ± 6.71 | 13.3 ± 4.76 | 1010 | antagonism | potent antagonists | −41.9 ± 8.70 | −31.0 ± 4.14 | −95.8 ± 17.8 | −92.4 ± 3.03 | EC50 ([3]; HEK293, follow-up screen, read-out: PGC/ERR-HEK293 Follow-Up Viability EC50 (converted)): 2970 nM; EC50 ([4]; HEK293, read-out: ERR-HEK293 Follow-Up Viability EC50): 429 nM; Percent inhibition of mRNA gene expression, IDH3α (IDH3α; 175 nM): 22.4% and 22.4 ± 3.14%; Percent inhibition of mRNA gene expression, Cytochrome C (cytochrome c; 175 nM): 27.3% and 27.3 ± 7.33%; Percent inhibition of mRNA gene expression, COX4I1 (COX4I1; 175 nM): 2.34 ± 3.78%
5 | C[C@@H]1CC[C@H]2[C@@H](C)C(=O)O[C@@H]3O[C@@]4(C)CC[C@@H]1[C@]32OO4 [Artemisinin] | 14500 ± 10800 | 1780 ± 401 |  |  |  |  | Inactive | Inactive |  |  | 2440 ± 1220 | 1010 ± 297 |  | antagonism |  | −72.8 ± 22.0 | −57.6 ± 2.03 | −83.7 ± 14.6 | −71.6 ± 5.57 | ERR-HEK293 Primary Efficacy ([6]; listed as artemisinin): −71.6%; activity in the Nrf2-ARE assay [7]: active agonists; Percent inhibition of mRNA gene expression, IDH3α (IDH3α; 7 µM): 30.2%; Percent inhibition of mRNA gene expression, Cytochrome C (cytochrome c; 7 µM): 36.2%
6 | Cc1nc2ccccc2n1Cc1ccc(Cl)cc1 [Chlormidazole] |  |  |  |  |  |  |  |  |  |  |  |  |  |  |  |  |  |  |  | Percent inhibition of mRNA gene expression, IDH3α (IDH3α; 5 µM): 23.8 ± 3.17%; Percent inhibition of mRNA gene expression, Cytochrome C (cytochrome c; 5 µM): 35.8 ± 3.92%; Percent inhibition of mRNA gene expression, COX4I1 (COX4I1; 5 µM): 4.71 ± 5.09%
